Results taken from patent publication US11584800B2, “Method of treating cancer comprising administration of anti-HER2 antibody-drug conjugate” (DAIICHI SANKYO COMPANY, LIMITED, priority 2014, dated 2023).

Columns and labels:
[1] = Self-degradation of aminal structure of released drug derivative; type: physicochemical
[2] = system: Human gastric cancer line NCI-N87 cells; test: Antitumor test (2), NCI-N87 subcutaneous transplant in nude mice; type: in vivo, nude mouse; conditions: 10 mg/kg intravenously on Day 7; FIG. 4
Experimental: Mouse: 5- to 6-week-old female nude mice (Charles River Laboratories Japan, Inc.) were acclimatized for 4 to 7 days under SPF conditions before use in the experiment. The mice were fed with sterilized solid feed (FR-2, Funabashi Farms Co., Ltd) and given sterilized tap water (prepared by the addition of 5 to 15 ppm sodium hypochlorite solution). Assay and calculation expression: In all studies, the major axis and minor axis of a tumor were measured twice a week by using an electronic digital caliper ([…] Corp.), and the tumor volume (mm^3) was calculated. The calculation expression is as shown below. […] Human gastric cancer line NCI-N87 cells purchased from ATCC (American Type Culture Collection) were suspended in physiological saline, and 1×10^7 cells were subcutaneously transplanted to the right side of the body of each female nude mouse (Day 0), and the mice were randomly grouped on Day 7. […] An untreated group was established as a control group.

[3] = system: Human breast cancer line JIMT-1 cells; test: Antitumor test (3), JIMT-1 subcutaneous transplant in nude mice; type: in vivo, nude mouse; conditions: 10 mg/kg intravenously on Days 12 and 19; FIG. 5
Experimental: (§2) Assay and calculation expression: In all studies, the major axis and minor axis of a tumor were measured twice a week by using an electronic digital caliper (CD-15CX, Mitutoyo Corp.), and the tumor volume (mm^3) was calculated. The calculation expression is as shown below. Tumor volume(mm^3)=½×Major axis (mm)×[Minor axis (mm)]^2
(§3) All of the antibody-drug conjugates and the antibody were diluted with physiological saline (Otsuka Pharmaceutical Factory, Inc.) and used at a volume of 10 mL/kg for intravenous administration to the tail vein of each mouse.
Human breast cancer line JIMT-1 cells purchased from DSMZ (Deutsche Sammlung von Mikroorganismen und Zellkulturen GmbH) were suspended in physiological saline, and 3×10^6 cells were subcutaneously transplanted to the right side of the body of each female nude mouse (Day 0), and the mice were randomly grouped on Day 12. […] A physiological saline administration group was established as a control group.

[4] = system: Human pancreatic cancer line Capan-1 cells weakly expressing HER2; test: Antitumor test (4), Capan-1 solid tumor in nude mice; type: in vivo, nude mouse; conditions: 10 mg/kg intravenously on Day 20; tumor with low HER2 expression; FIG. 6
Experimental: as §2, §3
Human pancreatic cancer line Capan-1 cells (ATCC) weakly expressing HER2 were suspended in physiological saline, and 4×10^7 cells were subcutaneously transplanted to the right side of the body of each female nude mouse to generate Capan-1 solid tumor. Thereafter, this solid tumor was maintained at several passages by transplantation to female nude mice and used in this test. […]

[5] = system: breast cancer ST225 tumor moderately expressing HER2; test: Antitumor test (6), patient-derived breast cancer ST225 in nude mice; type: in vivo, nude mouse; conditions: 10 mg/kg intravenously on Day 0; HER2 score 2+; FIG. 8
Experimental: (§1) Assay and calculation expression: The major axis and minor axis of tumor were measured twice a week by using an electronic digital caliper, and the tumor volume (mm^3) was calculated. The calculation expression is as shown below.

[6] = system: breast cancer ST910 tumor low expressing HER2; test: Antitumor test (7), patient-derived breast cancer ST910 in nude mice; type: in vivo, nude mouse; conditions: 10 mg/kg intravenously on Day 0; HER2 score 1+; FIG. 9
Experimental: as §1

[7] = system: colorectal cancer CTG-0401 tumor low or moderately expressing HER2; test: Antitumor test (8), patient-derived colorectal cancer CTG-0401 in nude mice; type: in vivo, nude mouse; conditions: 10 mg/kg intravenously on Day 0; HER2 score 1+ or 2+; FIG. 10
Experimental: as §1

[8] = system: non-small cell lung cancer CTG-0860 tumor moderately expressing HER2; test: Antitumor test (9), patient-derived non-small cell lung cancer CTG-0860 in nude mice; type: in vivo, nude mouse; conditions: 10 mg/kg intravenously on Day 0; HER2 score 2+; FIG. 11
Experimental: as §1

[9] = system: bile duct cancer CTG-0927 tumor highly expressing HER2; test: Antitumor test (10), patient-derived bile duct cancer CTG-0927 in nude mice; type: in vivo, nude mouse; conditions: 10 mg/kg intravenously on Day 0; HER2 score 3+; FIG. 12
Experimental: as §1

[10] = system: esophageal cancer CTG-0137 tumor highly expressing HER2; test: Antitumor test (11), patient-derived esophageal cancer CTG-0137 in nude mice; type: in vivo, nude mouse; conditions: 10 mg/kg intravenously on Day 0; HER2 score 3+; FIG. 13
Experimental: as §1

[11] = system: Human ovarian cancer line SK-OV-3 cells highly expressing HER2; test: Antitumor test (12), SK-OV-3 solid tumor in nude mice; type: in vivo, nude mouse; conditions: 10 mg/kg intravenously on Day 0, FIG. 14
Experimental: as §2, §3
Human ovarian cancer line SK-OV-3 cells highly expressing HER2 purchased from ATCC were suspended in physiological saline, and 4×10^7 cells were subcutaneously transplanted to the right side of the body of each female nude mouse to prepare SK-OV-3 solid tumor. Thereafter, this solid tumor was maintained at several passages by transplantation to female nude mice and used in this test. […]

Compound	stability of the aminal structure; releases HO—CH2—C(═O)—(NH-DX) [1]	antitumor effect (tumor volume), NCI-N87 [2]	growth of the JIMT-1 tumor (tumor volume) [3]	growth of the Capan-1 tumor (tumor volume) [4]	growth of the breast cancer ST225 tumor (tumor volume) [5]	growth of the breast cancer ST910 tumor (tumor volume) [6]	growth of the colorectal cancer CTG-0401 tumor (tumor volume) [7]	growth of the non-small cell lung cancer CTG-0860 tumor (tumor volume) [8]	growth of the bile duct cancer CTG-0927 tumor (tumor volume) [9]	growth of the esophageal cancer CTG-0137 tumor (tumor volume) [10]	growth of the SK-OV-3 tumor (tumor volume) [11]
CC[C@@]1(O)C(=O)OCc2c1cc1n(c2=O)Cc2c-1nc1cc(F)c(C)c3c1c2[C@@H](NC(=O)COCN)CC3 [NH2—CH2—O—CH2—C(═O)—(NH-DX)]	undergoes a self-degradation										
trastuzumab emtansine		tumor regression	did not inhibit the growth of the JIMT-1 tumor	did not inhibit the growth of the Capan-1 tumor	remarkably inhibited the growth of the tumor	did not inhibit the growth	did not inhibit the growth	did not inhibit the growth	inhibited the growth of the tumor	remarkably inhibited the growth of the tumor	remarkably inhibited the growth of the tumor
